Results from US20250281560A1, “METHOD FOR PREVENTING AND/OR TREATING CANCER OR AUTOIMMUNE DISEASE WITH 3,4,2 Prime,3 Prime,4 Prime-PENTAHYDROXY-TRANS-CHALCONE” (priority 2024, published 2025).

Legend:
[1] = molecular target: T1, human ornithine decarboxylase (ODC) (Homo sapiens, UniProt P11926); test: Inhibition of the activity of human ornithine decarboxylase by continuous spectrophotometry; assay type: biochemical; details: isolated component, FIG. 9
T1 sequence (P11926 1-461): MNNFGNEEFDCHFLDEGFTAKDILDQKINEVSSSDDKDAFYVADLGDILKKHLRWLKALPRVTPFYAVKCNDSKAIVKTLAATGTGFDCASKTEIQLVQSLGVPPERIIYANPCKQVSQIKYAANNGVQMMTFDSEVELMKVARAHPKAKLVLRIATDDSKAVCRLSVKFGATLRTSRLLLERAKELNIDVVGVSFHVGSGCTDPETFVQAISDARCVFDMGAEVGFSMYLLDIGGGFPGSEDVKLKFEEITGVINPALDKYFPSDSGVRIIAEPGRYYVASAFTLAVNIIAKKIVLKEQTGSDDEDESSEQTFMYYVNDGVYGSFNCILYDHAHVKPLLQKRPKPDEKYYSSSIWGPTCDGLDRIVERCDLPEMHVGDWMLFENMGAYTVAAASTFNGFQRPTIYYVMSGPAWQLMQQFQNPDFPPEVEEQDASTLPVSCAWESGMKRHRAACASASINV
Experimental: In this example, inhibition of the activity of human ornithine decarboxylase (ODC) was tested by continuous spectrophotometry. The standard ODC spectrophotometric reaction composition contained 30 mM Tris-HCl (pH 7.8), 10 mM ornithine, and 0.2 mM pyridoxal 5′-phosphate (PLP), together with 12.5 mM phosphoenolpyruvate, 0.4 unit/mL […] of microbes, 4.1 unit/mL malate dehydrogenase (malate dehydrogenase of mammals), and 0.6 mM NADH analog, with the final volume being 0.5 mL. The test mixture was added with a predetermined amount of an Acacia confusa extract sample as an inhibitor and then added with an appropriate amount of ODC to start the reaction. Once the enzyme ODC was added into the reaction mixture, the decrease in absorbance at 405 nm was continuously tracked with Lambda 25 UV-visible spectrophotometer (PerkinElmer Life Sciences). By this test method, 1 mole of CO2 was generated under the test conditions, and 1 mole of NADH analog was oxidized. The unit of the enzyme ODC was defined as the amount of the enzyme that is required to catalyze the generation of 1 mole of NAD per minute. For the calculation, 2410 M^−1cm^−1 was used as the molar absorptivity of the NADH analog. […]

[2] = molecular target: human peptidylarginine deiminase 4 (PAD4) (Homo sapiens, UniProt Q9UM07); test: Inhibition of the activity of human peptidylarginine deiminase 4 by continuous spectrophotometry; assay type: biochemical; details: human PAD4, isolated component, FIG. 10
Experimental: In this example, inhibition of the activity of human peptidylarginine deiminase 4 (PAD4) was tested by continuous spectrophotometry. The standard PAD4 spectrophotometric reaction mixture contained 10 mM BAEE (benzoyl-L-arginine ethyl ester), 10 mM CaCl2), 2.5 mM dithiothreitol (DTT), 8.5 mM α-ketoglutarate (α-KG), 0.22 mM NADH, and 3 U glutamate dehydrogenase (GDH). 100 mM Tris-HCl (pH 7.5) was added into a 1-mL colorimetric tube, followed by a predetermined amount of an Acacia confusa extract sample as an inhibitor. The temperature was controlled at 37° C. An appropriate amount of PAD4 was then added into the test mixture to start the reaction. Once the enzyme PAD4 was added into the reaction mixture, the decrease in absorbance at 340 nm was continuously recorded with a spectrophotometer (Beckman DU 7500). The unit of the enzyme PAD4 was defined as the amount reduced in order to catalyze the conversion of 1 μmol of NADH to NAD^+ per minute. For the calculation of enzyme activity, 6220 M^−1cm^−1 was used as the molar absorptivity of the NADH.
Referring to the content of Example 3 to detect the inhibiting activity of peptidylarginine deiminase 4 (PAD4) of components of the Acacia confusa ethyl acetate extract: Melanoxetin, Okanin and Transilitin, the results are shown in FIG. 10.

Chain of human peptidylarginine deiminase 4 (PAD4) (Q9UM07 whole entry): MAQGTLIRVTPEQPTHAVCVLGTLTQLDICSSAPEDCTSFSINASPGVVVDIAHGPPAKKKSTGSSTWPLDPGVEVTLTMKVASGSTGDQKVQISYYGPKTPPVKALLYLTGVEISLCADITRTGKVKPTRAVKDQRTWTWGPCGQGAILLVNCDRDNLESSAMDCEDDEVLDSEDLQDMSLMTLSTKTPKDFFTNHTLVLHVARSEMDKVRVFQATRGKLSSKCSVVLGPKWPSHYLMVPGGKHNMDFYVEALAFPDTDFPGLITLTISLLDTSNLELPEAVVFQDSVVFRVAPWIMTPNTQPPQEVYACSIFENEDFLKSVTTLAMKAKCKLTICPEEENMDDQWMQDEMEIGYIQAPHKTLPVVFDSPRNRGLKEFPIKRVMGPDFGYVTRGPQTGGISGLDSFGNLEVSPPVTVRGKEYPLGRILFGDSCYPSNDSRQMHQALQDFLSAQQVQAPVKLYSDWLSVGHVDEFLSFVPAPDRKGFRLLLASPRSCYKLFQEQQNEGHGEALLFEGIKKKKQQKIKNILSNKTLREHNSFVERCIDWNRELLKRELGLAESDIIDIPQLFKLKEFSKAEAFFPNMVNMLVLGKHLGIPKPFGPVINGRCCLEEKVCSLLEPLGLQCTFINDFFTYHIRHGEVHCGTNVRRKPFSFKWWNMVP

IC50 [1]: 8.2 ± 2.1 µM | IC50 [2]: 89.2 ± 8.3 µM
SMILES: O=C(/C=C/c1ccc(O)c(O)c1)c1ccc(O)c(O)c1O [Okanin, 3,4,2′,3′,4′-pentahydroxy-trans-chalcone]
